Measured values published in patent publication US5428048A, “Aryl-N-hydroxyureas as inhibitors of 5-lipoxygenase and anto-arteriosclerotic agents” (American Home Products Corporation, priority 1993, dated 1995).

Assays:
[1] = tested on: Lipoxygenase; assay: Ex-Vivo Measurement of Lipoxygenase Inhibition in Orally Dosed Rats (LTB4 in A23187-stimulated blood); parameters: species or system Male Sprague Dawley rats; settings: ex vivo rat, p.o.
Description: 2. […] After an interval of 3 or 6 hours, the rats were anesthetized with metofane (n =4/group) and blood collected in heparinized tubes. White blood cell counts and differentials were made. One ml of blood from each animal was placed in a 5 ml plastic tube in a shaker bath at 37° C. A23187 at a final concentration of 10 μM was added to the blood and the blood vortexed and incubated for 15 min at 37° C. with gentle shaking. Incubation was terminated by vortexing sample and centrifuging immediately at 1200 xG for 15 min at 4° C. The plasma was transferred to 15 ml plastic tubes each containing 8 ml of methanol to precipitate protein followed by vortexing. The samples were stored at -70° C. overnight and the next day the samples were centrifuged at 800 xG for 15 min to pellet the precipitate. The samples were dried in a Savant SpeedVac Concentrator Model SVC 200H and reconstituted to the original volume with cold RIA or ELISA buffer. The reconstituted samples were stored at -70° C. until assayed. The assay for LTB4 was perforated according to the directions of the [^3 H]RIA kit or ELISA kit (Seragen). The total metabolite level in 1 ml of blood is calculated and reported as ng/10^6 neutrophils. Significance is determined by a one-way analysis of variance with LSD comparisons to control (p<0.05).

[2] = tested on: Low Density Lipoprotein; assay: Inhibition of Copper Ion Mediated Oxidation of Low Density Lipoprotein; type: biochemical; settings: Cu+2 mediated oxidation of rabbit or monkey LDL, 37° C., 90 minutes, 532 nm
Description: 5. Inhibition of Copper Ion Mediated Oxidation of Low Density Lipoprotein
In this in vitro assay, the inhibition of Cu^+2 mediated oxidation of rabbit or monkey LDL by an invention compound is determined spectrophotometricallly. Oxidation of LDL results in the formation of LDL-diene which absorbs light at 532 nm. Inhibition of oxidation of LDL leads to a decrease in absorbance at 532 nm.
Rabbit or monkey LDL is prepared according to the procedures of Havel, Eder and Gragdon, "The Distribution and Chemical Composition of Ultracentrifugally Separated Lipoproteins in Human Serum,: J. Clin. Invest. 34, 1345-1353 (1955) and Parhtasarathy, Wieland and Steriberg, "A Role for Endothelial Cell Lipoxygenase in the Oxidative Modification of Low Density Lipoprotein," Proc. Natl. Acad. Sci. USA 86, 1046-1050 (1989). Test compound solutions are prepared by dissolving the invention compounds in ethanol at concentrations up to 248 μM. The medium used is Dulbecco's phosphate buffered saline containing 0.5 mg/ml bovine serum albumin. For standards, 0 to 10 μl of an aqueous solution of 1,1,3,3-tetraethoxypropane (1 μmol/ml H2 O) in 4.1 ml of medium is used.
Test compound solution ([…]) is added to 4 ml of medium in incubation tubes. To each tube is added 10 μl of LDL solution and 25 μl of aqueous copper sulfate solution (1.32 mg/ml H2 O). The tubes are incubated at 37° C. for 90 minutes and the oxidation reaction quenched by addition of 1 ml of thiobarbituric acid solution (0.67% in 50% acetic acid). The tubes are heated at 90° C. for 1 hour, then chilled in an ice bath and the chromophore extracted into 2 ml of n-butanol. Absorbence is read at 532 nm and the results are reported as nmols of malondialdehyde equivalents.
Significant differences (p<0.05) are determined by the Dunnett T-test or by the Student-Newman-Keuls Test for significant differences between means. The assay is conducted using several concentrations [I] of the inhibitor test compounds. The LDL solution concentrations at different experiments were either 1.5 mg/ml, 2.5 mg/ml or 10.3 mg/ml. The IC50 is determined by non-linear regression, plotting log [I] vs. % inhibition. (Reference: K. Yagi, Biochemical Medicine 15,212-216 (1976)).

[3] = dose 25 (mg/kg), pretreatment 3 hr

| SMILES | % Inhibition of LTB4 [1, 3] | IC50 [2] | % Inhibition of LTB4 ([1]; dose 1 (mg/kg), pretreatment 6 hr) | % Inhibition of LTB4 ([1]; dose 5 (mg/kg), pretreatment 6 hr) |
| --- | --- | --- | --- | --- |
| Cc1oc(-c2ccccc2)nc1CCOc1ccc(CN(O)C(N)=O)cc1 [Example 1] | 79% | 690 nM |  |  |
| Cc1oc(-c2ccccc2)nc1CCOc1ccc(C(C)N(O)C(N)=O)cc1 (stereo not shown) [Example 4] | 57% | 1300 nM |  |  |
| Cc1oc(-c2ccc(C(F)(F)F)cc2)nc1CCOc1ccc(CN(O)C(N)=O)cc1 [Example 13, 1-Hydroxy-1-[4-[2-[5-methyl-2(4-trifluoromethyl-phenyl)-oxazol-4-yl]-ethoxy]benzyl]-urea] |  | 820 nM | 50% |  |
| NC(=O)N(O)Cc1ccc(OCCc2noc(-c3ccccc3)n2)cc1 [Example 21, 1-hydroxy-1-[4-[2-(5-phenyl-[1,2,4]-oxadiazol-3-yl)-ethoxy]-benzyl]-urea] |  |  |  | 60% |
